Measurements as given in patent US20260344665A1, “FUNGICIDAL COMPOUND” (priority 2022, published 2026).
Read-outs that look alike come from different tables or passages of the source.

Experiments:
[1] = tested on: Blumeria graminis f.sp. tritici; assay: Powdery mildew assay in wheat (haustoria formation); assay type: in vivo
Zymoseptoria tritici = assay: Leaf painting assay in wheat seedling, Zymoseptoria tritici preventive; assay type: in vivo
Protocol: Wheat seedlings of the variety Riband (for Zymoseptoria tritici trials) or variety Arina (for Puccinia recondite trials) were grown in the glasshouse until 14d after seeding. At this time, such seedlings usually have a first leaf fully emerged (designated L1), a second leaf fully emerged (L2) and a third leaf (L3) that is partially emerged and in the process of development. Using a permanent pen, two dots were applied on the second leaf such as to generate three segments of roughly equal size: Segment A (at the base), segment B (middle part) and segment C (tip of the leaf). A stock solution of the compound of Formula (I) was produced in water and of benzovindiflupyr in DMSO at a concentration of 10,000 ppm. […] The diluted compound was applied to the middle segment of L2 using a conventional cotton stick; the cotton stick was soaked in the diluted compound and rubbed several times on the adaxial leaf surface between the two marks. One day later, the complete plant was inoculated with a fungal spore suspension using a paint brush. The spore suspension was applied until before run-off.
For infection with Zymoseptoria tritici (preventive), the test plants were inoculated by spraying a spore suspension on them one day after application (1.5 Mio spores per ml in water supplemented with 0.01% Tween20). After an incubation period of 4 days at 22 °C/21 °C (day/night) and 95% rh, the inoculated test plants were kept at 22 °C/21 °C (day/night) and 70% rh in a greenhouse.
The three segments of the leaf were evaluated individually.

Magnaporthe grisea = assay type: in vivo, Magnaporthe grisea (Pyricularia oryzae); conditions: rice, preventive
[2] = tested on: Blumeria graminis f.sp. tritici; assay: Mixture with malonomicin, leaf disc, Blumeria graminis f.sp. tritici preventive; assay type: in vivo; conditions: foliar, 168 h, read-out: control of fungal growth
From the text: A stock solution for oligosaccharide compound according to the present invention was produced in water plus 0.025% Tween®20. Malonomicin was produced according to Law et al, 2018 (Nature Catalys is | VOL 1 | DECEMBER 2018 | 977-984). A stock solution of malonomicin was produced in water plus 0.025% Tween®20.
Assays to test efficacy of mixtures of the compound of Formula (I) in combination with malonomicin on the control of fungal pathogens in a leaf disc assay were designed for two 24 well plates.
Table 11 and Table 12: Outline of 24 well testplate (3) and testplate (4) including concentration of compounds per well. The upper number in the cell indicates the oligosaccharide compound of the present invention concentration (ppm), the lower number malonomicin concentration (ppm). Column (1) holds a dilution series of compound of Formula (I), row (4-D) hold a dilution series of malonomicin. Well 4-D-(1) represents an untreated check. This design was applied for tests including Blumeria graminis f.sp. tritici (EPPO code: ERYSGT) with preventive spray timing and Parastagonospora nodorum (EPPO code: LEPTNO) with preventive spray timing.
A first set of master plates with 1× concentrated spray solution of the compound of Formula (I) stock diluted in water with concentrations according to Table 8, Table 9, Table 11 and Table 12, respectively, was prepared. Each well contained 0.025% Tween®20. Accordingly, a second set of master plates with 1× concentrated malonomicin stock diluted in water was prepared. Each well of the second set contained 0.025% Tween®20. Leaf segments placed on agar in 24 well plates are sprayed with 8 ul of solution from the master plate containing compound of Formula (I) and the leaf segments were let to dry, followed 2 hours later by 8 ul of solution from the master plate containing malonomicin. After second sprays have dried, leaf segments are infected with fungal spores to obtain a preventive application timing. Alternatively, leaf segments infected one day before spray of the compounds are used, resulting in a curative spray timing. In addition, several plates were produced where leaf segments were sprayed 2× in absence of test compound (with only Tween®20), representing the untreated check samples. For each leaf segment percent leaf coverage of disease symptoms was assessed. Percent leaf coverage reduction relative to the untreated check was calculated. Efficacy of the mixtures was tested in duplicate and on different fungal species. Reported efficacy values are the average of two replicate results.
Blumeria graminis f.sp. tritici (EPPO Code: ERYSGT) with Preventive Spray Timing
Wheat (cultivar Kanzler) leaf segments are placed on agar in multiwell plates (24-well format) and sprayed with test solutions (8 ul per well). After drying, the leaf disks are inoculated with spores of the fungus. After appropriate incubation the activity of a compound is assessed 7 dpi (days post inoculation) as preventive fungicidal activity.

## CC(=O)NC1C(OCC(OC2OC(CO)C(O)C(O)C2O)C2OC(OC3C(O)C(CO)OC(OC4(CO)OC(C(O)CO)C(O)C4OC4OC(CO)C(O)C(O)C4O)C3O)C(O)C(O)C2OC2OC(C(O)CO)C(O)C(O)C2OC2OCC(OC(N)=O)C(O)C2O)OC(CO)C(O)C1O (centres unmarked) [compound of Formula (I)]
[1]; Blumeria graminis, 48 h, pre-treated wheat, read-out: concentration at which effect on haustoria formation is observed
  minimal effective concentration: ≥ 25 µM
[1]; Blumeria graminis, 1 μM, 48 h after infecting, read-out: haustoria formation (% relative to control)
  activity at 1 µM: 106%
[1]; Blumeria graminis, 25 μM, 48 h after infecting, read-out: haustoria formation (% relative to control)
  activity at 25 µM: 59.1%
[1]; Blumeria graminis, 100 μM, 48 h after infecting, read-out: haustoria formation (% relative to control)
  activity at 100 µM: 66.4%
[1]; pre-treated wheat
  reduction of haustoria formation: reduction of haustoria formation
Zymoseptoria tritici; Experiment 1, 200.00 ppm, base segment, preventive
  % reduction fungal growth: 24%
Zymoseptoria tritici; Experiment 1, 200.00 ppm, middle segment (treated), preventive
  % reduction fungal growth: 93%
Zymoseptoria tritici; Experiment 1, 200.00 ppm, tip segment, preventive
  % reduction fungal growth: 99%
Zymoseptoria tritici; Experiment 3, 400.00 ppm, base segment, preventive
  % reduction fungal growth: 1%
Zymoseptoria tritici; Experiment 3, 400.00 ppm, middle segment (treated), preventive
  % reduction fungal growth: 96%
Zymoseptoria tritici; Experiment 3, 400.00 ppm, tip segment, preventive
  % reduction fungal growth: 100%
Zymoseptoria tritici; leaf painting, preventive
  activity against growth of fungus: active against growth
Zymoseptoria tritici; middle segment treated
  control on treated and above treated area: provided control on the treated area (middle segment) as well as the above treated area (tip)
Magnaporthe grisea; 0.80 ppm
  % reduction fungal growth: 0%
Magnaporthe grisea; 2.50 ppm
  % reduction fungal growth: 0%
Magnaporthe grisea; 7.40 ppm
  % reduction fungal growth: 0%
Magnaporthe grisea; 22.00 ppm
  % reduction fungal growth: 60%
Magnaporthe grisea; 67.00 ppm
  % reduction fungal growth: 70%
Magnaporthe grisea; 200.00 ppm
  % reduction fungal growth: 100%
[2]; Formula (I) 9.38 ppm solo
  inhibition of growth at 9.38 µg/mL: 10%
[2]; Formula (I) 18.75 ppm solo
  inhibition of growth at 18.75 µg/mL: 0%
[2]; Formula (I) 37.5 ppm solo
  inhibition of growth at 37.5 µg/mL: 0%
[2]; Formula (I) 75 ppm solo
  inhibition of growth at 75 µg/mL: 20%
[2]; Formula (I) 150 ppm solo
  inhibition of growth at 150 µg/mL: 0%
[2]; Formula (I) 300 ppm solo
  inhibition of growth at 300 µg/mL: 10%
[2]; Formula (I) 600 ppm solo
  inhibition of growth at 600 µg/mL: 10%
